Source: US10294457B2, “Maturation of hepatocyte-like cells derived from human pluripotent stem cells” (Takara Bio Europe AB, priority 2012, dated 2019)

How the values were obtained:
[1] = tested on: hiPSC-derived hepatocytes; assay: CYP activity assay, 9cis-RA or other RXR- and RAR-agonists (Example 15); format: cell-based, human; settings: instead of 0.2 μM 9cis-RA: 0.5 μM ATRA, 5 μM AM580, 0.2 μM 13cis-RA, 5 μM LGD1069, 5 μM LG100268 or 5 μM SR11237; with Kenpaullone, overlay, early 5-aza-2-deoxycytidine; day 36
Procedure: Some experimental groups were treated with 0.5 μM all trans-retinoic acid (ATRA), 5 μM AM580, 0.2 μM 13cis-RA, 5 μM LGD1069, 5 μM LG100268 or 5 μM SR11237 instead of 0.2 μM 9cis-RA.

[2] = tested on: DE derived from hPSC lines P11032, SA181 and P11012; assay: qRT-PCR of stem cell and DE markers in DE, 5-aza-2-deoxycytidine or 5-azacytidine (Example 12); format: cell-based, human; settings: 10 nM 5-aza-2-deoxycytidine or 1 μM 5-azacytidine on day 2-3; day 7
Procedure: Following the basic protocols C (P11032, SA181) or D (P11012), cells derived from 3 different hPSC lines were treated with either 10 nM 5-aza-2-deoxycytidine or 1 μM 5-azacytidine on day 2-3 during the pre-endodermal phase.

RAR = settings: Allenby et al.; Idres et al.; cited from earlier work
RXR = settings: cited from earlier work; for affinity of binding to RXR: compared with 9-cis-retinoic acid (Heyman et al.)
[3] = tested on: hepatocyte-like cells derived from hES cells; assay: HNF4α TaqMan assays: HNF4α isoform expression after 9 cis-retinoic acid (Example 3); format: cell-based, human; settings: for expression of the adult HNF4a1-3 isoforms / expression of the fetal HNF4a4-9 isoforms: 1 or 2 μM
From the text: Three different HNF4α-TaqMan assays were used for analysis of HNF4α expression: one assay detecting all 9 HNF4α isoforms, one assay detecting isoforms 1-3 (including the adult isoforms 1 and 2) and one assay detecting isoforms 4-9 (including the fetal isoforms 7 and 8). Isoforms 3, 4, 5, 6 and 9 are not expressed at all in vivo or at very low levels and can therefore be neglected.

hESC-derived hepatocytes [4] = tested on: hESC-derived hepatocytes
Procedure: Following the basic protocol A, differentiating hES cell derived hepatic progenitors and hepatocyte-like cells cultured on a Gelatin-based coating were treated with 1 μM 9-cis retinoic acid for 5, 24 or 48 hr exposures on days 21, 22 or 23 of the protocol (i.e. on day 7, 8 or 9 of the differentiation and maturation phase; FIG. 2 A, B, D), repeated 5 hr exposures on days 11, 16, 23, 25 and 30 of the protocol (i.e. on day 4 of the pre-hepatic phase and days 2, 9, 11 and 16 of the differentiation and maturation phase; FIG. 2 C), or long term/continuous treatment from day 14 and onwards (i.e.starting on day 1 of the differentiation and maturation phase; FIG. 2D).
Immediately after end of the RA treatment, the cell cultures are subjected to a CYP activity assay according to the following protocol: Cells are washed twice with warm Williams medium E w/o phenol red (+0.1% PEST). Then CYP activity assay, consisting of warm Williams medium E w/o phenol red (+0.1% PEST), 2 mM L-Glutamine, 25 mM HEPES, 26 μM Phenacetin (model substrate for CYP1A), 9 μM Diclofenac (model substrate for CYP2C9) and 3 μM Midazolam (model substrate for CYP3A), is added to the cells (e.g. 220 μl/24 well) and incubated for 16 hr at 37° C. Then supernatant is collected and centrifuged for 20 min at 10.000 rcf at 4° C. Subsequently, 120 μl of the supernatant is transferred into a 96 well plate which is sealed with a tight seal tape and stored at −20 or −80° C. until LC/MS-analysis of metabolite formation: Acetaminophen (Paracetamol) for CYP1A, OH-Diclofenac for CYP2C9 and OH-Midazolam for CYP3A.

[5] = tested on: hES cell derived hepatocyte-like cells; assay: qRT-PCR gene expression after RA treatment, basic protocol A (Example 5)
Procedure: Following the basic protocol A, hES cell derived hepatocyte-like cells cultured on a Gelatin-based coating were treated with 1 μM 9-cis retinoic acid for 5 hr on day 21 of the protocol (i.e. on day 7 of the differentiation and maturation phase) or 24 hr on day 22-23 of the protocol (i.e. on day 8-9 of the differentiation and maturation phase).
Cells were harvested on day 21 or 23 of the protocol (i.e. on day 7 or 9 of the differentiation and maturation phase) and gene expression was analysed using qRT-PCR, normalised to the house-keeping gene CREBBP and the results presented as relative quantification normalised to a calibrator (FIG. 3.)

hESC-derived hepatocytes [6] = assay: CYP activity assay, early 5-aza-2-deoxycytidine plus late RA, Kenpaullone and matrix overlay (Example 8); format: cell-based, human; settings: additional effect of treatment with the DNA demethylation agent on day 2-3
Procedure: (§1) Following the basic protocols C (hESC-derived hepatocytes) or D (hiPSC-derived hepatocytes), differentiating hES and hiPS cells in the pre-endodermal phase were treated with 10 nM of the DNA demethylating agent 5-aza-2-deoxycytidine for 24 hr on day 2 to 3 of the protocol.
(§2) Later in the protocol, hPS cell derived hepatic progenitor cells and hepatocyte-like cells cultured on a Fibronectin-based coating were treated with continuous/long term treatment with 0.2 μM 9cis-RA and 0.5 μM Kenpaullone starting on day 14 of the protocol (i.e. on day 1 of the differentiation and maturation phase) and received thin Fibronectin-Collagen I-overlays on day 14 and 16 of the protocol (i.e. on day 1 and 3 of the differentiation and maturation phase) and is refreshed thereafter once a week on day 23, 30, 37 and so on (i.e. on day 9, 16, 23 and so on of the differentiation and maturation phase).
(§3) For analysing functional expression of CYP enzymes on day 36 (i.e. on day 22 of the maturation step; FIG. 10), the cell cultures are subjected to a CYP activity assay according to the following protocol: Cells are washed twice with warm Williams medium E w/o phenol red (+0.1% PEST). […]

[7] = tested on: hiPSC-derived hepatocytes; assay: as above; format: cell-based, human; settings: additional effect of treatment with the DNA demethylation agent on day 2-3
Procedure: as §1, §2, §3

[8] = 24-, 48 hr-exposure and continuous RA-treatment
[9] = 5 hr RA-exposure, day 23, analysed immediately after the exposure
[10] = continuous/long-term RA treatment versus 5 and 24 hr RA exposures

C=C(c1ccc(C(=O)O)cc1)c1cc2c(cc1C)C(C)(C)CCC2(C)C [LGD1069]
CYP2C9 activity [1]: slightly smaller increase

Nc1ncn([C@@H]2O[C@H](CO)[C@@H](O)[C@H]2O)c(=O)n1 [5-azacytidine]
Oct4 and Nanog mRNA [2]: significantly decreased
mRNA expression of the DE markers Sox17 and Cxcr4 [2]: No significant changes

CC1=C(/C=C/C(C)=C/C=C\C(C)=C\C(=O)O)C(C)(C)CCC1 [11-cis-retinoic acid]
binding to RAR and RXR (RAR): specifically bind RAR, but not to RXR
affinity of binding to RXR (RXR): much lower affinity

9-cis-retinoic acid [RA]
expression of the adult HNF4a1-3 isoforms [3, 8]: slightly increase
expression of the fetal HNF4a4-9 isoforms [3, 8]: slightly decrease
expression of the adult HNF4a1-3 isoforms [3, 9]: strongly increase
expression of the fetal HNF4a4-9 isoforms [3, 9]: increase
expression of fetal HNF4α isoform (4-9) ([3]; 5 hr exposure with 1 μM RA, 7 days later): raised over control values
expression of HNF4α isoforms 1-3 ([3]; 5 hr exposure with 1 μM RA, 7 days later, vs untreated control cells): slightly lower
expression of HNF4α isoforms 1-3 ([3]; 5 hr exposure with 1 μM RA, immediately after the exposure): increases
expression of HNF4α isoforms 4-9 ([3]; 5 hr exposure with 1 μM RA, immediately after the exposure, vs control): slightly lower
ratio of HNF4a 1-3 isoforms/4-9 isoforms ([3]; 5 hr exposures): do not increase
ratio of HNF4a 1-3 isoforms/4-9 isoforms ([3]; 24 hr and 48 hr RA-exposure and long term/continuous treatment): increase the 1-3/4-9 ratio of hESC-derived hepatocytes to levels similar as in hp hep
CYP1A activity (hESC-derived hepatocytes [4]): strongest increase
CYP1A, 2C9 and 3A activities (hESC-derived hepatocytes [4]): increased
CYP1A, CYP2C9 and 3A activities (hESC-derived hepatocytes [4]): increase
CYP1A-, 2C9- and 3A-activity (hESC-derived hepatocytes [4]): significant increase
CYP1A-activity (hESC-derived hepatocytes [4]): increase
CYP3A activity (hESC-derived hepatocytes [4]): strongest increase
effect on CYP1A and 2C9 activity (hESC-derived hepatocytes [4]): stronger increasing effect
binding to and activation of RXR and RAR (RXR; Allenby et al., Idres et al.): binds to and activates both RXR and RAR
mRNA expression of the adult hepatic gene CYP3A4 ([5]; 5 hr RA-exposure (1 μM) on day 21, immediately after and 2 and 7 days later (day 23 and 30)): increase
decrease of expression of the fetal hepatic gene CYP3A7 ([5]; 5 hr exposure on day 21, 2 days later on day 23): strongly
decrease of expression of the fetal hepatic gene CYP3A7 ([5]; 5 hr exposure on day 21, immediately after the exposure on day 21): slightly
increase of mRNA expression of the adult hepatic gene PXR ([5]; 5 hr exposure on day 21, measured on day 21): not immediately after the 5 hr exposure
mRNA expression of the adult hepatic gene PXR ([5]; 5 hr exposure on day 21, measured on day 23): increases
mRNA expression of the adult hepatic gene PXR ([5]; 24 hr RA-exposure on day 22-23): increases
adult CYP3A4 expression ([5]; 24 hr RA-exposure on day 22-23, day 23): immediate up-regulation
expression of the fetal hepatic gene CYP3A7 ([5]; 24 hr RA-exposure on day 22-23, immediately after the exposure on day 23): strongly decreases
fetal hepatic gene α-Fetoprotein (AFP) expression [5, 10]: stronger down-regulation
mRNA expression of the adult hepatic gene CAR [5, 10]: higher increase

CC1=C(/C=C/C(C)=C/C=C/C(C)=C\C(=O)O)C(C)(C)CCC1 [13cis RA, 13-cis-retinoic acid]
binding to RAR and RXR (RAR): specifically bind RAR, but not to RXR
affinity of binding to RXR (RXR): much lower affinity

CC1=C(\C=C/C(C)=C/C=C/C(C)=C/C(=O)O)C(C)(C)CCC1 [7-cis retinoic acid]
binding to RAR and RXR (RAR): specifically bind RAR, but not to RXR

Nc1ncn([C@H]2C[C@H](O)[C@@H](CO)O2)c(=O)n1 [5-aza-2-deoxycytidine]
CYP2C9 activity (hESC-derived hepatocytes [6]): No additional increase
CYP2C9 activity [7]: No additional increase

CC1=C(/C=C/C(C)=C/C=C/C(C)=C/C(=O)O)C(C)(C)CCC1 [ATRA, all trans-retinoic acid]
CYP2C9 activity [1]: slightly smaller increase
binding to RAR and RXR (RAR): specifically bind RAR, but not to RXR
affinity of binding to RXR (RXR): much lower affinity
